ChEMBL document CHEMBL1144215, “N-Propylnoraporphin-11-O-yl carboxylic esters as potent dopamine D(2) and serotonin 5-HT(1A) receptor dual ligands” (Bioorg Med Chem, 2008)

What was measured:
[1] = target: 5-hydroxytryptamine receptor 2A (Homo sapiens, UniProt P28223); experiment: Displacement of [3H]Ketanserin from human 5HT2A receptor expressed in HEK293 cells
[2] = target: Dopamine D1 receptor; experiment: Displacement of [3H]SCH23390 from rat dopamine D1 receptor expressed in HEK293 cells
[3] = target: T1, D(2) dopamine receptor (Homo sapiens, UniProt P14416); experiment: Displacement of [3H]Spiperone from human dopamine D2 receptor expressed in HEK293 cells
T1 sequence (P14416 whole entry): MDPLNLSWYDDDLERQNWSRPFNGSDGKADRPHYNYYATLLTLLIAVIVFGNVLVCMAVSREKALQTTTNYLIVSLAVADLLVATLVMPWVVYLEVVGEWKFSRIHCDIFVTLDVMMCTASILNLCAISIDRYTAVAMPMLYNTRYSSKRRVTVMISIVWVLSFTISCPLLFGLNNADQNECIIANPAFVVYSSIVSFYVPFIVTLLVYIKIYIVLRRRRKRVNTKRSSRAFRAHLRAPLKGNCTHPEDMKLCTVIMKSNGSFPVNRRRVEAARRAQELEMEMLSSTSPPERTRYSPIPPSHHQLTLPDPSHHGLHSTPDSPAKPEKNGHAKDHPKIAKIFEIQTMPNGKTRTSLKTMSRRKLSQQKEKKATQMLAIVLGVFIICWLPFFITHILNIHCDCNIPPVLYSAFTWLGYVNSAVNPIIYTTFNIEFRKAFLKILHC

[4] = target: T1, D(2) dopamine receptor; experiment: Displacement of […] from human dopamine D2 receptor expressed in HEK293 cells; assay type: cell-based

5-hydroxytryptamine receptor 2A, sequence (P28223 whole entry): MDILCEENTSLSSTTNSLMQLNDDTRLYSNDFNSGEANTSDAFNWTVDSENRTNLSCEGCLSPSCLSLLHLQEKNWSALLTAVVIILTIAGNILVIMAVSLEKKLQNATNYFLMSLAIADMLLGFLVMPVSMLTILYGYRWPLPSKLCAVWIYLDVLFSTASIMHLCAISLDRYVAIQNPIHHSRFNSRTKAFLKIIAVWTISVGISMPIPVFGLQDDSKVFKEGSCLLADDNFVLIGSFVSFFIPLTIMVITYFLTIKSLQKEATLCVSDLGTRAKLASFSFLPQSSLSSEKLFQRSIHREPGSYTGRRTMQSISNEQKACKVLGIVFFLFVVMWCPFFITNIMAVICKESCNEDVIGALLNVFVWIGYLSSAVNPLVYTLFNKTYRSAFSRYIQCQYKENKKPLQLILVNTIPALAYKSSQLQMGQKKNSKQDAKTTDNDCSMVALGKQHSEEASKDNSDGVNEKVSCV

Ki [4] | Compound | Ki [1] | Ki [2] | Ki [3]
– | CCCCCCC(=O)Oc1cccc2c1-c1cccc3c1[C@@H](C2)N(CCC)CC3 | 95 nM | – | –
– | CCCC(=O)Oc1cccc2c1-c1cccc3c1[C@@H](C2)N(CCC)CC3 | 56 nM | > 10000 nM | > 10000 nM
– | CCCCC(=O)Oc1cccc2c1-c1cccc3c1[C@@H](C2)N(CCC)CC3 | 92 nM | – | > 10000 nM
– | CCCCCC(=O)Oc1cccc2c1-c1cccc3c1[C@@H](C2)N(CCC)CC3 | 109 nM | > 10000 nM | > 10000 nM
> 10000 nM | CCCN1CCc2cccc3c2[C@H]1Cc1cccc(OC(=O)CCCC(=O)Oc2cccc4c2-c2cccc5c2[C@@H](C4)N(CCC)CC5)c1-3 | – | – | –
– | CCCN1CCc2cccc3c2[C@H]1Cc1cccc(OC(=O)CC)c1-3 | 109 nM | – | –
– | CCCN1CCc2cccc3c2[C@H]1Cc1cccc(OC(C)=O)c1-3 | 72 nM | – | –
– | CCCN1CCc2cccc3c2[C@H]1Cc1cccc(O)c1-3 | 114 nM | – | –
– | CCCN1CCc2cccc3c2[C@H]1Cc1cccc(OC(=O)CNC(=O)OCc2ccccc2)c1-3 | > 10000 nM | > 10000 nM | > 10000 nM
